Results taken from patent US20250136641A1, “PEPTIDES AND COMPOSITIONS FOR USE IN COSMETICS, FOOD AND MEDICINE” (priority 2022, published 2025).
Ends that are not written are not given here.

Experiments:
[1] = test system: inflammation-related genes; assay: Expression of inflammation-related genes (RT-qPCR) in HEKa cells; format: cell-based, human; details: 0.01 mg/mL peptide, vs untreated basal sample
[2] = test system: inflammation-related miRNAs; assay: Expression of inflammation-related miRNAs (RT-qPCR) in HEKa cells; format: cell-based, human; details: 0.01 mg/mL peptide, 24 h, vs untreated basal sample
IL-8 = IL-8 secretion by HaCaT keratinocytes (ELISA), with or without IFNγ; format: cell-based, human
HDFa73 (HDFa from adult) = assay: Telomere length in HDFa cells (qPCR); format: cell-based, human; details: 48 hours
Nrf2 = assay: Subcellular localization of Nrf2 in HEKa cells (immunofluorescence); format: cell-based, human; details: 0.01 or 0.05 mg/mL peptide, 24 hours, vs untreated cells
TLR2 = TLR2 levels in human epidermal keratinocytes after IFNγ (ELISA); format: cell-based
catalase = assay: Levels or synthesis of catalase enzyme in HEKa cells (ELISA); format: cell-based, human; details: 24 hours
TRF1 [3] = assay: TRF1 levels in CHA9.3 cells (immunofluorescence); format: cell-based; details: 0.125 mg/mL peptide, 24-hour incubation, vs DMSO control
TRF1 [4] = assay: TRF1 foci per cell in HEKa cells (immunofluorescence); format: cell-based, human; details: basal condition, 0.005 mg/mL peptide, vs untreated
53BP1 = assay: DNA damage (53BP1 foci) under oxidative stress in HEKa cells; format: cell-based, human; details: 100 μM H2O2, 0.01 or 0.05 mg/mL peptide, vs cells treated only with H2O2

**Q.** Which results are given for GYYELND-NH2 [SEQ ID NO: 2-NH2]?
**A.** HMOX1 gene expression ([1]; 6 h): upregulation; IRAK3 gene expression ([1]; 6 h): upregulation; TNFAIP3 gene expression ([1]; 6 h): upregulation; TOLLP gene expression ([1]; 6 h): upregulation; CXCL8 gene expression ([1]; 24 h): downregulated; IL1B gene expression ([1]; 24 h): downregulated; IL6 gene expression ([1]; 24 h): downregulated; MMP3 gene expression ([1]; 24 h): downregulated; NFKB1 gene expression ([1]; 24 h): downregulated; NQO1 gene expression ([1]; 24 h): upregulated; TLR2 gene expression ([1]; 24 h): downregulated; TNF gene expression ([1]; 24 h): downregulated; miR-21-5p expression [2]: upregulate; miR-146a-5p expression [2]: upregulate; secretion of IL-8 under inflammatory conditions (IL-8; 48 hours, 0.005, 0.01 or 0.05 mg/mL together with IFNγ at 10 ng/mL, compared to positive control (IFNγ alone)): decrease, in a dose-dependent manner; secretion of IL-8 under basal conditions (IL-8; without IFNγ, all concentrations tested (SEQ ID NO: 2-NH2 0.005, 0.01, 0.05 mg/mL; SEQ ID NO: 3-NH2 0.01, 0.05 mg/mL), vs untreated cells): decreased the secretion of IL-8 in a dose-dependent manner but at a lower degree that under inflammatory conditions; telomeres longer than untreated HDFa73 (HDFa73 (HDFa from adult); 0.005 mg/mL peptide): 17%; telomeres longer than untreated HDFa73 (HDFa73 (HDFa from adult); 0.01 mg/mL peptide): 30%; Nrf2 translocation into the nuclei (Nrf2): Nrf2 translocation from the cytoplasm to the nuclei in a concentration dependent manner; decrease in levels of TLR2 (TLR2; HEKa cells after IFNγ, highest peptide concentration (0.05 mg/mL), 24 hours): 19%; levels of TLR2 (TLR2; HEKa cells, 24 hours 10 ng/mL IFNγ, then 0.01 or 0.05 mg/mL peptide for 24 hours): lower the levels of TLR2 after exposure to IFNγ in a dose dependent-manner; levels of catalase (catalase; HEKa cells, 0.005, 0.01 or 0.05 mg/mL peptide, catalase/total protein vs basal): increase the levels of catalase in a dose-dependent manner; increase in levels of catalase (catalase; HEKa cells, highest concentration (0.05 mg/mL), vs basal): 47%; TRF1 intensity (TRF1 [3]): increase in TRF1; TRF1 foci per cell (TRF1 [4]): increase in TRF1; 53BP1 foci per cell (53BP1): decrease in 53BP1 foci
